Assay results from BigSolDB 2.1.

O=C(O)CCCCCC(=O)O
Details	solubility (mole fraction)
in THF, 298.95 K	0.191
in THF, 300.55 K	0.198
in THF, 302.15 K	0.204
in THF, 303.65 K	0.211
in THF, 305.15 K	0.218
in THF, 307.95 K	0.231
in THF, 309.05 K	0.235
in THF, 311.75 K	0.25
in THF, 313.75 K	0.259
in THF, 315.75 K	0.271
in THF, 317.75 K	0.282
in THF, 320.25 K	0.296
in THF, 321.65 K	0.306
in THF, 323.05 K	0.316
in diethyl ether, 278.95 K	0.0091
in diethyl ether, 281.95 K	0.0102
in diethyl ether, 284.65 K	0.0112
in diethyl ether, 287.05 K	0.0122
in diethyl ether, 290.05 K	0.0137
in diethyl ether, 292.95 K	0.0152
in diethyl ether, 294.75 K	0.0165
in diethyl ether, 296.35 K	0.018
in diethyl ether, 299.15 K	0.0199
in diethyl ether, 301.55 K	0.0222
in ethanol, 298.45 K	0.121
in ethanol, 301.45 K	0.131
in ethanol, 304.25 K	0.144
in ethanol, 305.75 K	0.151
in ethanol, 307.55 K	0.158
in ethanol, 310.25 K	0.172
in ethanol, 312.15 K	0.187
in ethanol, 314.85 K	0.202
in ethanol, 316.25 K	0.206
in ethanol, 317.95 K	0.219
in ethanol, 320.95 K	0.235
in ethanol, 323.55 K	0.248
in ethanol, 325.65 K	0.267
in ethanol, 327.55 K	0.281
in ethanol, 329.25 K	0.294
in methanol, 300.75 K	0.142
in methanol, 302.65 K	0.152
in methanol, 304.15 K	0.159
in methanol, 305.95 K	0.171
in methanol, 307.65 K	0.18
in methanol, 310.05 K	0.187
in methanol, 312.65 K	0.205
in methanol, 314.85 K	0.218
in methanol, 317.85 K	0.246
in methanol, 321.35 K	0.27
in methanol, 323.75 K	0.293
in methanol, 325.55 K	0.309
in methanol, 327.15 K	0.324
in methanol, 328.75 K	0.342
